Laboratory results reported in PubChem BioAssay (NCI).
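Method: 48-hour compound exposure of cells in 96-well plates, five concentrations, linear interpolation of endpoints. GI50 = concentration required for 50% inhibition of growth. At the TGI there is no net growth.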 Where a SMILES comes first, the peptide text is derived from it.

Key:
Assay in all cases: inhibition of tumour cell growth, NCI panel, 48 h
OVCAR-4 ovarian = tested on: OVCAR-4 ovarian
U251 CNS = tested on: U251 CNS
LOX IMVI melanoma = tested on: LOX IMVI melanoma
CCRF-CEM leukemia = tested on: CCRF-CEM leukemia
SF-268 CNS = tested on: SF-268 CNS
RPMI-8226 leukemia = tested on: RPMI-8226 leukemia
HCC-2998 colon = tested on: HCC-2998 colon
COLO 205 colon = tested on: COLO 205 colon
K-562 leukemia = tested on: K-562 leukemia
SNB-19 CNS = tested on: SNB-19 CNS

SMILES | GI50 (OVCAR-4 ovarian) [µM] | TGI (OVCAR-4 ovarian) [µM] | GI50 (U251 CNS) [µM] | TGI (U251 CNS) [µM] | TGI (LOX IMVI melanoma) [µM] | GI50 (CCRF-CEM leukemia) [µM] | TGI (CCRF-CEM leukemia) [µM] | TGI (SF-268 CNS) [µM] | GI50 (RPMI-8226 leukemia) [µM] | TGI (RPMI-8226 leukemia) [µM] | GI50 (HCC-2998 colon) [µM] | TGI (HCC-2998 colon) [µM] | GI50 (COLO 205 colon) [µM] | TGI (COLO 205 colon) [µM] | GI50 (K-562 leukemia) [µM] | TGI (K-562 leukemia) [µM] | TGI (SNB-19 CNS) [µM] | GI50 (SF-268 CNS) [µM] | GI50 (LOX IMVI melanoma) [µM] | GI50 (SNB-19 CNS) [µM]
CC(C)CC(NC(=O)C(CC(C)C)NC(=O)C(Cc1cnc[nH]1)NC(=O)C(C)NC(=O)C(NC(=O)C(C)NC(=O)C(Cc1c[nH]c2ccccc12)NC(=O)C(CCC(=O)O)NC(=O)C(N)Cc1ccccc1)C(C)C)C(N)=O (configuration not stated) (H-FEWAVAHLL-NH2; configuration not given here) | > 100 | > 100 | > 100 | > 100 | > 12.5 | > 100 | > 100 | > 12.5 | > 100 | > 100 | > 100 | > 100 | > 100 | > 100 | > 100 | > 100 | > 100 | – | – | –
COc1ccc(-c2cc(=O)c3c(OC)c(OC)c(OC)c(OC)c3o2)cc1OC | – | > 100 | – | > 100 | > 100 | – | > 100 | > 100 | – | > 100 | – | > 100 | – | > 100 | – | > 100 | > 100 | – | – | –
N#CC(=S)Nc1ccc(Cl)c(Cl)c1 | 5.67 | > 100 | – | > 85.1 | 66.2 | – | 15.2 | > 94.5 | – | 13.4 | – | 34.8 | – | 49.5 | – | 46.9 | > 100 | – | – | –
CN(C)C(=O)/N=c1\ss/c(=N\C(=S)N(C)C)n1-c1ccccc1 | – | 60.2 | – | > 100 | > 46 | – | > 48.8 | > 100 | 0.291 | > 100 | – | > 100 | 0.306 | > 100 | – | > 56.1 | > 100 | 0.389 | – | –
Nc1ncnc(NC2C=C(CO)C(O)C2O)c1[N+](=O)[O-] (configuration not stated) | – | > 100 | – | > 100 | > 100 | – | > 100 | > 100 | – | > 100 | – | > 100 | – | > 100 | – | > 100 | > 100 | – | – | –
C=C[C@]1(C)CCC2=C(CCC3C2(C)CCC[C@]3(C)CO)C1 (some centres not stated) | – | > 100 | – | 63.8 | 68 | – | > 100 | > 100 | – | > 100 | – | > 100 | – | > 100 | – | > 100 | > 100 | – | – | –
COC(=O)C(C(=O)C(=O)NC1=C(Cl)C(=O)c2ccccc2C1=O)c1csc(-n2nc(-c3ccccc3)cc2-c2ccccc2)n1 (configuration not stated) | – | > 100 | – | > 100 | > 100 | – | > 100 | > 100 | – | > 100 | – | > 100 | – | > 100 | – | > 100 | > 100 | – | – | –
CN(C)CCCN(c1nc(C(Cl)(Cl)Cl)ns1)c1nc(C(Cl)(Cl)Cl)ns1 | 2.21 | 5.58 | 1.76 | 3.22 | 3.01 | 2.45 | 8.03 | 11.4 | 2.19 | 5.35 | 1.69 | 3.31 | 1.47 | 2.85 | 1.79 | 3.93 | 7.3 | 3.12 | 1.58 | 2.53
CNNCc1ccc(C(=O)NC(C)C)cc1 | – | > 500 | > 500 | > 500 | > 500 | – | > 500 | > 500 | – | > 500 | > 500 | > 500 | – | > 500 | > 500 | > 500 | > 500 | – | – | –
C/C(CC(=O)NNc1ccc([N+](=O)[O-])cc1)=N\Nc1ccc([N+](=O)[O-])cc1 | 5.92 | > 100 | 10.5 | 33.2 | > 100 | 4.76 | > 100 | > 100 | 7.91 | > 100 | 6.4 | > 100 | 3.8 | > 100 | 0.622 | > 100 | > 100 | 13.4 | 2.72 | 29.7
CCCc1cc2cc(-n3nc(C)c4c3CC(C)(C)CC4=O)cc(NC3CCC(O)CC3)c2c(=O)[nH]1 (configuration not stated) | > 39.6 | > 100 | 0.607 | > 100 | 1.07 | 0.278 | > 100 | > 100 | 0.465 | 14.9 | 0.144 | > 100 | 0.0775 | 1.22 | 0.0502 | > 100 | > 100 | 1.8 | 0.116 | 0.523
O=C(O)C1NCCc2c1[nH]c1ccccc21 (configuration not stated) | > 100 | > 100 | > 100 | > 100 | > 100 | > 100 | > 100 | > 100 | – | > 10 | > 100 | > 100 | > 100 | > 100 | > 100 | > 100 | > 100 | > 100 | – | > 100
COC(=O)C(=O)C(C(=O)C(=O)Nc1ccc(Cl)cc1C)c1nc2ccc(C(=O)c3ccccc3)cc2[nH]c1=O (configuration not stated) | – | > 100 | – | > 100 | > 100 | – | > 100 | > 100 | – | > 100 | – | > 100 | – | > 100 | – | > 100 | > 100 | – | – | –
